According to ChEMBL document CHEMBL3091403, “Desmethyl Macrolides: Synthesis and Evaluation of 4,8,10-Tridesmethyl Cethromycin” (2013):
Values after ≈ are worked out from the molar mass of the structure shown.

Legend:
Assay type in all cases: functional
[1] = tested on: Escherichia coli; experiment: Antibacterial activity against Escherichia coli SQ171/2058G harboring ribosomal A2058G mutant
[2] = tested on: Staphylococcus aureus; experiment: Antibacterial activity against Staphylococcus aureus ATCC 33591 harboring ribosomal ermA mutant
[3] = tested on: Staphylococcus aureus; experiment: Antibacterial activity against Staphylococcus aureus UCN14 harboring ribosomal A2058U mutant
[4] = tested on: Escherichia coli; experiment: Antibacterial activity against wild-type Escherichia coli DK/pKK3535
[5] = tested on: Escherichia coli; experiment: Antibacterial activity against Escherichia coli DK/2058G harboring ribosomal A2058G mutant

**Q.** With CC[C@H]1OC(=O)[C@H](C)C(=O)C[C@@H](O[C@@H]2O[C@H](C)C[C@H](N(C)C)[C@H]2O)[C@](C)(OC/C=C/c2cnc3ccccc3c2)CCC(=O)C[C@H]2NC(=O)O[C@@]21C as the compound, how does the MIC [1] read?
**A.** The MIC was over 256 mg/L.

**Q.** And the MIC [2]?
**A.** Its MIC is over 64 mg/L.

**Q.** What about the MIC [3] of the same compound?
**A.** Its MIC is over 256 mg/L.

**Q.** And the MIC [4]?
**A.** Its MIC is 2 mg/L (≈ 2.76 µM).

**Q.** What about the MIC [5] of the same compound?
**A.** The MIC was 1 mg/L (≈ 1.38 µM).
